Results taken from US20150126611A1, “3,3-DIPHENYL-N-(1-PHENYLETHYL) PROPAN-1-AMINE: AS A NEW SELECTIVE LIGAND OF THE SIGMA-1 RECEPTORS, WITH ANTI-APOPTOTIC (CYTOPROTECTIVE) PROPERTIES AND PROTOTYPICAL ANTICANCER ACTIVITY” (priority 2012, published 2015).

Assays:
M3 muscarinic receptors = target: T1, M3 muscarinic receptors (Mus musculus, UniProt Q9ERZ3); assay: peripheral M3 muscarinic antagonism in mice; type: in vivo; conditions: 0.1 to 10 mg/kg, ip
T1 construct: from tissue; host or cells: living mice, peripheral tissues
T1 sequence (Q9ERZ3 whole entry): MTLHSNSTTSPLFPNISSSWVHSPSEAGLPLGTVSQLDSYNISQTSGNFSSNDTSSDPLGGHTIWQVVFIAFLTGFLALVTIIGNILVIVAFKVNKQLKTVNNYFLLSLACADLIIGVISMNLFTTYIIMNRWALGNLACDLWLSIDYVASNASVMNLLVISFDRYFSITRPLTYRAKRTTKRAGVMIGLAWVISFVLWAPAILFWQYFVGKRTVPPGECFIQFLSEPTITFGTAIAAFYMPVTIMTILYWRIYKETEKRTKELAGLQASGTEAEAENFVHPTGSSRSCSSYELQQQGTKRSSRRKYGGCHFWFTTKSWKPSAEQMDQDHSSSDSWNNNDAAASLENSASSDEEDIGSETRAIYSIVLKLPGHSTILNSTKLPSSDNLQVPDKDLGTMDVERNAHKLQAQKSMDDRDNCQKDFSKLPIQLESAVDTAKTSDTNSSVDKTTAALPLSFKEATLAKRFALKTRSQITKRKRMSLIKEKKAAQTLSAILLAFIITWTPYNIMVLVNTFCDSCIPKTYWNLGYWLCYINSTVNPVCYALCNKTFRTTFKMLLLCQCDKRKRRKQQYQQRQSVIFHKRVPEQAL

[1] = system: Paclitaxel-induced neuropathic pain; assay: neuropathic pain by sensibilisation with Paclitaxel, formalin injection in hind paw; type: in vivo; conditions: po, mice
Procedure: Finally, in the experimental protocol of neuropathic pain by sensibilisation with Paclitaxel and evaluation of the neuropathic pain by injection of formalin in the hind paw of mice, the analgesic effect of DPPA was significative from 1.0 mg/kg (po) and was spectacular at higher doses (25 to 75 mg/kg, po). Indeed, the Paclitaxel+DPPA treated mice were less sensible to formalin than the control mice not treated with Paclitaxel.

[2] = system: scopolamine induced amnesia; assay: scopolamine induced amnesia; type: in vivo; conditions: mice
[3] = system: immobility in forced swimming; conditions: po, mice, Porsolt; cited from earlier work
Aβ25-35 induced amnesia = assay: amyloid Aβ25-35 induced amnesia (Y-maze and step-through); type: in vivo, mice
From the text: Indeed, concerning the cytodegenerative diseases and more specifically the neurodegenerative diseases (Alzheimer, Huntington, Parkinson or Multiple Sclerosis), DPPA, in contrast to the symptomatic treatments used currently against the above diseases, antagonizes their pathophysiological causes ie., the endocellular biochemical stress and, concerning the neurons, also their fatal entry in the cell cycle. Of particular interest was the action of DPPA when it was coadministered with the inhibitors of the acetylcholinesterases (IAChEases) which are used as symptomatic drugs (principally Rivastigmine, Donepezil and Galantamine) against the Alzheimer's Disease (AD). […] Indeed, DPPA, via its antagonistic action on the M2 muscatinic autoreceptors of the brain cholinergic neurons (M2[−]), abolished the pro-neurodegenerative agonistic activity of the IAChEases on the hyperactivated (by AD or by the soluble Aβ25-35) cerebral M2 muscarinic autoreceptors, originating a new pharmacological approach (M2[−]) and (σ1[+]) against the neurodegenerative effects of Aβ25-35 in AD and also against the deleterious effect of the agonistic action of IAChEases on the M2 muscarinic brain autoreceptors, validating these drugs (IAChEases) as putative therapeutic agents against AD.

[4] = system: site-2 of the sodium channels; assay: affinity for site-2 of the sodium channels; type: binding
M2 muscarinic receptors = target: T2, M2 muscarinic receptors (Mus musculus, UniProt Q9ERZ4); assay: peripheral M2 muscarinic antagonism in mice; type: in vivo; conditions: 0.1 to 10 mg/kg, ip
T2 construct: from tissue; host or cells: living mice, peripheral tissues
T2 sequence (Q9ERZ4 1-466): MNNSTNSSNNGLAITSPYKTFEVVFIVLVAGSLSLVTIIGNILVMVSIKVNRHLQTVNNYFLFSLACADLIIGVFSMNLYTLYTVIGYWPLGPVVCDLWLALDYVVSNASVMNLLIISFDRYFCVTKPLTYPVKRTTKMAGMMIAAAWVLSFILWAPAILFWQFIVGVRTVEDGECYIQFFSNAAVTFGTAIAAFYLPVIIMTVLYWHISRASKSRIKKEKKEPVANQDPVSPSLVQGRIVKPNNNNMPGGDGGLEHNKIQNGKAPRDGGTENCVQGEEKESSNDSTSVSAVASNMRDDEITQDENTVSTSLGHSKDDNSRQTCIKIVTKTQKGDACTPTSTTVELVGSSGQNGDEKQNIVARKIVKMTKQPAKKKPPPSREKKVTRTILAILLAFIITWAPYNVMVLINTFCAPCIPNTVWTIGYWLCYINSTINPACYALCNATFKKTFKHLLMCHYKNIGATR

sigma-1 receptors = sigma-1 receptors (Homo sapiens, UniProt Q99720); assay: binding to sigma-1 receptors; conditions: read-out: median concentrations of binding (IC50) for sigma-1 receptors
Chain of sigma-1 receptors (Q99720 whole entry): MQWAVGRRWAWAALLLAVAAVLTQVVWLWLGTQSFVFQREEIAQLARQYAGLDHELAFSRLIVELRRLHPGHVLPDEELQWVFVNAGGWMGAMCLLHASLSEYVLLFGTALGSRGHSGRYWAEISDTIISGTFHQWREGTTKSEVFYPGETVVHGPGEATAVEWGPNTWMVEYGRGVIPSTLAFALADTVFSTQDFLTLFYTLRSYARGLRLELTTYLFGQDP

[5] = system: dizocilpine induced amnesia; assay: dizocilpine induced amnesia; type: in vivo; conditions: mice
cancer cells = assay: anticancer activity in vitro and in vivo by inoculation of cancer cells in SCID mice; set-up: species or system immunosuppressed SCID mice
From the text: The anticancer activity of DPPA was studied in vitro and in vivo by inoculation of cancer cells in immunosuppressed SCID mice. […] Moreover, even when the neuropathic pain, induced by the anticancer drugs was installed, DPPA antagonized it, by inhibition of the hypersensitive neurons injured by the neurotoxicity of the above anticancer drugs.

[6] = system: mitochondrial toxicity of pentylenetetrazole (PTZ); assay: antagonism of pentylenetetrazole (PTZ) lethality in mice; type: in vivo; conditions: PTZ 130 mg/kg ip
Procedure: (§1) More important- at lower doses: 0,01 to 1,00 mg/kg, intraperitoneal (ip) in mice—the cytoprotective activity of DPPA obtained by antagonism of the endoplasmic reticulum stress (ER stress) and amelioration of the cytoprotective autophagic processus of the cells and, more specifically, of neurons (in the neurodegenerative diseases and eldery). […] These cytoprotective activities of DPPA were completed, specifically in neurons, by inhibiting their entry in the cell cycle, as this entry is always fatal for neurons. In contrast, concerning the cancer cells, the above inhibition triggered the apoptotic processus and their death.

[7] = as above; type: in vivo; conditions: PTZ 130 mg/kg ip, DPPA 3 mg/kg po
Procedure: as §1

sigma-2 receptors = sigma-2 receptors (Homo sapiens, UniProt Q5BJF2); assay: binding to sigma-2 receptors; conditions: read-out: median concentrations of binding (IC50) for sigma-2 receptors
Chain of sigma-2 receptors (Q5BJF2 whole entry): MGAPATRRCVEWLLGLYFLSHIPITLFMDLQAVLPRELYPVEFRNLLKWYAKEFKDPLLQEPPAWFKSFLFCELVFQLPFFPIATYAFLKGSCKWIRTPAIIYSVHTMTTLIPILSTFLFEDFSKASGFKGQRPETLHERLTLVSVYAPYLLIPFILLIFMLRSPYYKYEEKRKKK

[8] = system: colon, prostate, ovarian, pancreas and hepatic cancer cells; assay: in vitro anticancer activity; type: cell-based

Question: With `CC(NCCC(c1ccccc1)c1ccccc1)c1ccccc1` (centres unmarked) [DPPA, 3,3-diphenyl-N-(1-phenylethyl) propan-1-amine] as the compound, how does the “effects on M3 muscarinic receptors in the periphery” value (M3 muscarinic receptors) read?
Answer: antagonistic effects

Question: What about the “analgesic effect at higher doses” value ([1]; 25 to 75 mg/kg) of the same compound?
Answer: spectacular

Question: What about the “dose from which the analgesic effect was significative” value ([1]; Paclitaxel sensibilisation, formalin in hind paw) of the same compound?
Answer: ≥ 1.0 mg/kg

Question: What about the “antagonism of scopolamine induced amnesia” value [2] of the same compound?
Answer: antagonism

Question: And the “dose at which anti-immobility properties are significative” value [3]?
Answer: more than 10 mg/kg

Question: And the “antiamnesic action on coadministration with IAChEases (Rivastigmine or Donepezil)” value (Aβ25-35 induced amnesia; intracerebral soluble Aβ25-35, mice, Y-maze and step-through)?
Answer: higher than the sum of the antiamnesic effects of DPPA and IAChEases

Question: And the “antagonism of amyloids Aβ25-35 induced amnesia” value (Aβ25-35 induced amnesia; mice)?
Answer: antagonism

Question: And the IC50 [4]?
Answer: 290 nM

Question: And the “effects on M2 muscarinic receptors in the periphery” value (M2 muscarinic receptors)?
Answer: antagonistic effects

Question: And the IC50 (sigma-1 receptors)?
Answer: 14 to 18 nM

Question: And the “antagonism of dizocilpine induced amnesia” value [5]?
Answer: antagonism

Question: And the “anticancer activity versus clinically used anticancer drugs” value (cancer cells)?
Answer: lower than those of the clinically used anticancer drugs

Question: And the “increase of the latency of lethality of PTZ” value (“increase” for short) ([6]; DPPA 10 mg/kg po)?
Answer: 10 fold

Question: What about the “increase” value ([6]; DPPA 30 mg/kg po) of the same compound?
Answer: 20 fold

Question: And the “increase” value [7]?
Answer: 5 fold

Question: What about the IC50 (sigma-2 receptors) of the same compound?
Answer: 730 to 850 nM

Question: What about the “anticancer activity on cancer cells in vitro” value [8] of the same compound?
Answer: demonstrated the anticancer activity
